Reference: ChEMBL document CHEMBL1201862, “PubChem BioAssay data set” (2004)
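Cells were grown in 96-well plates and exposed to each compound for 48 hours at five concentrations; endpoints were interpolated linearly between bracketing concentrations, or set to the highest concentration if not reached. At the GI50, growth is halved.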 The source made the active and inactive calls. No stated cut-off is given here; in the data, active = GI50 up to about 1.1 µM and inactive = higher.

Experiments:
Test in all cases: growth of human tumour cells (NCI), 48 h
786-0 = test system: 786-0
A549 = test system: A549
ACHN = test system: ACHN
CCRF-CEM = test system: CCRF-CEM
DMS-114 = test system: DMS-114
HCC 2998 = test system: HCC 2998
HCT-116 = test system: HCT-116
HL-60 = test system: HL-60
HOP-92 = test system: HOP-92
LOX IMVI = test system: LOX IMVI
NCI-H23 = test system: NCI-H23
NCI-H460 = test system: NCI-H460
OVCAR-5 = test system: OVCAR-5
OVCAR-8 = test system: OVCAR-8
SF-268 = test system: SF-268
SK-MEL-2 = test system: SK-MEL-2
SNB-19 = test system: SNB-19
TK-10 = test system: TK-10

Measured: GI50

Nc1c2ccccc2nc2nccnc12
inactive: 786-0 > 100 µM | A549 > 100 µM | ACHN > 100 µM | CCRF-CEM > 100 µM | DMS-114 > 100 µM | HCC 2998 > 100 µM | HCT-116 > 100 µM | HL-60 > 100 µM | HOP-92 > 100 µM | LOX IMVI > 100 µM | NCI-H23 > 100 µM | NCI-H460 > 100 µM | OVCAR-5 > 100 µM | OVCAR-8 > 100 µM | SF-268 > 100 µM | SK-MEL-2 > 100 µM | SNB-19 > 100 µM | TK-10 > 100 µM

Clc1cc(Cl)c2c(Cl)cc(Cl)c3c2c1N=S=N3
inactive: 786-0 > 100 µM | A549 > 100 µM | CCRF-CEM 52.1 µM | DMS-114 > 100 µM | HCC 2998 > 100 µM | HCT-116 > 100 µM | HL-60 94.6 µM | HOP-92 > 100 µM | LOX IMVI > 100 µM | NCI-H23 > 100 µM | OVCAR-5 > 100 µM | OVCAR-8 > 100 µM | SF-268 > 100 µM | SK-MEL-2 > 100 µM | SNB-19 > 100 µM | TK-10 > 100 µM

Cc1cc2c(cc1C)[n+]([O-])c(C(=O)C/C(=N/NC(=O)c1ccccc1O)C(=O)Nc1ccccc1C(C)C)c(C)[n+]2[O-]
inactive: 786-0 88.1 µM | A549 > 100 µM | ACHN > 100 µM | CCRF-CEM 27.3 µM | DMS-114 98.6 µM | HCC 2998 > 100 µM | HCT-116 > 100 µM | HL-60 14.8 µM | LOX IMVI 87.3 µM | NCI-H23 > 100 µM | NCI-H460 61.8 µM | OVCAR-5 > 100 µM | OVCAR-8 > 100 µM | SF-268 68.2 µM | SK-MEL-2 > 100 µM | SNB-19 > 100 µM | TK-10 > 100 µM

COc1cc(/C=C(\C#N)c2ccccc2)cc(OC)c1
inactive: 786-0 31.8 µM | A549 28.6 µM | ACHN 60.5 µM | CCRF-CEM 30.7 µM | DMS-114 27.5 µM | HCC 2998 67.6 µM | HCT-116 49.5 µM | HL-60 24.3 µM | LOX IMVI 22.1 µM | NCI-H23 20.3 µM | NCI-H460 42.6 µM | OVCAR-5 55.1 µM | OVCAR-8 > 10 µM | SF-268 40.9 µM | SK-MEL-2 73.6 µM | SNB-19 > 100 µM | TK-10 > 100 µM

C[Si](C)(C)/C(Br)=C\CCN1C(=O)CCC1O (centres undefined)
inactive: 786-0 > 100 µM | A549 > 100 µM | ACHN > 100 µM | CCRF-CEM > 100 µM | DMS-114 > 100 µM | HCT-116 > 100 µM | HOP-92 91.4 µM | LOX IMVI > 100 µM | NCI-H23 > 100 µM | NCI-H460 > 100 µM | OVCAR-5 > 100 µM | OVCAR-8 > 100 µM | SF-268 > 100 µM | SK-MEL-2 > 100 µM | SNB-19 > 100 µM | TK-10 > 100 µM

C/C(CC(=O)Nc1ccc(NC(=O)/C(C)=N/NS(=O)(=O)c2ccc(C)cc2)cc1)=N\NS(=O)(=O)c1ccc(C)cc1
inactive: 786-0 > 100 µM | A549 > 100 µM | ACHN > 100 µM | CCRF-CEM > 10 µM | DMS-114 > 100 µM | HCC 2998 > 100 µM | HCT-116 > 100 µM | HL-60 > 100 µM | HOP-92 > 100 µM | LOX IMVI > 100 µM | NCI-H23 > 100 µM | NCI-H460 > 100 µM | OVCAR-5 > 100 µM | OVCAR-8 > 100 µM | SF-268 > 100 µM | SK-MEL-2 > 100 µM | TK-10 > 100 µM

Brc1cc2c(cc1Br)CN(c1ccccc1)C2
inactive: 786-0 > 100 µM | A549 > 100 µM | ACHN > 100 µM | CCRF-CEM > 100 µM | DMS-114 > 100 µM | HCC 2998 > 100 µM | HCT-116 > 100 µM | HL-60 > 100 µM | HOP-92 41.5 µM | LOX IMVI > 100 µM | NCI-H23 > 100 µM | NCI-H460 > 100 µM | OVCAR-5 > 100 µM | OVCAR-8 > 100 µM | SF-268 > 100 µM | SK-MEL-2 > 100 µM | SNB-19 > 100 µM | TK-10 > 100 µM

CCc1cc2c(O)c(c1)Cc1cc(CC)cc(c1O)Cc1cc(CC)cc(c1O)Cc1cc(CC)cc(c1O)Cc1cc(CC)cc(c1O)Cc1cc(CC)cc(c1O)Cc1cc(CC)cc(c1O)C2
inactive: 786-0 > 100 µM | A549 > 100 µM | ACHN > 100 µM | CCRF-CEM > 100 µM | DMS-114 > 100 µM | HCC 2998 > 100 µM | HCT-116 > 100 µM | HL-60 > 100 µM | HOP-92 44 µM | NCI-H23 > 100 µM | NCI-H460 > 100 µM | OVCAR-5 > 100 µM | OVCAR-8 > 100 µM | SF-268 > 100 µM | SK-MEL-2 > 100 µM | SNB-19 22.1 µM | TK-10 > 100 µM

NC(CNc1ccc(O)cc1)C(=O)O (centres undefined)
inactive: 786-0 16 µM | A549 > 100 µM | ACHN 57.8 µM | CCRF-CEM 33.6 µM | DMS-114 > 100 µM | HCT-116 > 100 µM | HL-60 31.5 µM | HOP-92 > 100 µM | LOX IMVI 60.8 µM | NCI-H460 > 100 µM | OVCAR-5 > 100 µM | OVCAR-8 > 100 µM | SF-268 > 100 µM | SK-MEL-2 60.4 µM | SNB-19 > 100 µM | TK-10 > 100 µM

COC(=O)Cc1nc2ccccc2o1
inactive: 786-0 > 100 µM | A549 74.6 µM | ACHN 41.7 µM | CCRF-CEM 44.3 µM | DMS-114 36.1 µM | HCC 2998 88.5 µM | HCT-116 91.2 µM | HL-60 12.5 µM | HOP-92 > 100 µM | NCI-H23 > 100 µM | NCI-H460 80.5 µM | OVCAR-5 45.2 µM | OVCAR-8 55.5 µM | SF-268 > 100 µM | SK-MEL-2 65.8 µM | SNB-19 > 100 µM | TK-10 46.2 µM

N=C(N)NS(=O)(=O)c1ccc(NC(=O)c2cccc3c(Nc4ccc(S(N)(=O)=O)cc4)c4ccccc4nc23)cc1
inactive: 786-0 > 100 µM | A549 > 100 µM | ACHN > 100 µM | CCRF-CEM > 100 µM | DMS-114 > 100 µM | HCC 2998 > 100 µM | HOP-92 > 100 µM | LOX IMVI > 100 µM | NCI-H23 > 100 µM | NCI-H460 > 100 µM | OVCAR-5 > 100 µM | OVCAR-8 > 100 µM | SF-268 > 100 µM | SK-MEL-2 > 100 µM | SNB-19 > 100 µM | TK-10 > 100 µM

O=S1OC(c2ccccc2)(c2ccccc2)C(c2ccccc2)(c2ccccc2)O1
inactive: 786-0 > 100 µM | A549 40 µM | ACHN 41.7 µM | CCRF-CEM 7.01 µM | DMS-114 36.8 µM | HCC 2998 > 100 µM | HCT-116 4.61 µM | HL-60 7.96 µM | HOP-92 7.74 µM | LOX IMVI 2.56 µM | NCI-H23 > 52.7 µM | NCI-H460 > 30.1 µM | OVCAR-5 > 100 µM | OVCAR-8 > 100 µM | SF-268 > 91.4 µM | SNB-19 > 100 µM | TK-10 > 100 µM

CCc1nc2c([nH]1)C(=O)c1ccccc1C2=O
inactive: 786-0 61.4 µM | A549 52.8 µM | ACHN 59.8 µM | CCRF-CEM 48.5 µM | DMS-114 21.2 µM | HCC 2998 31.8 µM | HCT-116 27.2 µM | HL-60 25.6 µM | NCI-H23 29 µM | NCI-H460 43 µM | OVCAR-5 > 100 µM | OVCAR-8 57.9 µM | SF-268 70 µM | SK-MEL-2 > 100 µM | SNB-19 46.2 µM | TK-10 > 100 µM

c1ccc(C2OC3(CCC[C@H]4C[C@H]43)O[C@H]2c2ccccc2)cc1 (some centres undefined)
inactive: 786-0 57 µM | A549 43.2 µM | ACHN 30.3 µM | CCRF-CEM 22.2 µM | DMS-114 33.7 µM | HCC 2998 39.9 µM | HCT-116 31.8 µM | HL-60 19.8 µM | HOP-92 27.3 µM | LOX IMVI 24.2 µM | NCI-H23 38.6 µM | NCI-H460 39.8 µM | OVCAR-5 60.8 µM | OVCAR-8 48 µM | SF-268 73.8 µM | SK-MEL-2 21.5 µM | SNB-19 44.4 µM | TK-10 > 100 µM

CC1C=CC(O)[C@]2(CO)CC3(CCC12)OCCO3 (some centres undefined)
inactive: 786-0 > 100 µM | A549 > 100 µM | ACHN > 100 µM | CCRF-CEM > 100 µM | DMS-114 > 100 µM | HCC 2998 > 100 µM | HCT-116 > 100 µM | HL-60 > 100 µM | HOP-92 > 100 µM | NCI-H23 > 100 µM | NCI-H460 > 100 µM | OVCAR-5 > 100 µM | OVCAR-8 > 100 µM | SF-268 > 100 µM | SK-MEL-2 > 100 µM | SNB-19 > 100 µM | TK-10 > 100 µM

O=C(CC(=O)c1ccccc1)c1ccccc1.O=C(CC(=O)c1ccccc1)c1ccccc1.O=C(CC(=O)c1ccccc1)c1ccccc1.[SiH4]
inactive: 786-0 7.74 µM | A549 3.01 µM | ACHN 3.63 µM | CCRF-CEM 1.14 µM | DMS-114 2.3 µM | HCC 2998 3.6 µM | HCT-116 5.02 µM | HL-60 1.92 µM | HOP-92 4.57 µM | LOX IMVI 3.1 µM | NCI-H23 3.15 µM | OVCAR-5 12.4 µM | OVCAR-8 3.47 µM | SF-268 3.37 µM | SNB-19 4.74 µM | TK-10 5.97 µM
